Counter-ions that a name gives are not always drawn. Like-named read-outs stand apart in the source and are kept apart here.
Biological target: T1, ENT1 (Homo sapiens, UniProt Q99808)
T1 sequence (Q99808 1-456): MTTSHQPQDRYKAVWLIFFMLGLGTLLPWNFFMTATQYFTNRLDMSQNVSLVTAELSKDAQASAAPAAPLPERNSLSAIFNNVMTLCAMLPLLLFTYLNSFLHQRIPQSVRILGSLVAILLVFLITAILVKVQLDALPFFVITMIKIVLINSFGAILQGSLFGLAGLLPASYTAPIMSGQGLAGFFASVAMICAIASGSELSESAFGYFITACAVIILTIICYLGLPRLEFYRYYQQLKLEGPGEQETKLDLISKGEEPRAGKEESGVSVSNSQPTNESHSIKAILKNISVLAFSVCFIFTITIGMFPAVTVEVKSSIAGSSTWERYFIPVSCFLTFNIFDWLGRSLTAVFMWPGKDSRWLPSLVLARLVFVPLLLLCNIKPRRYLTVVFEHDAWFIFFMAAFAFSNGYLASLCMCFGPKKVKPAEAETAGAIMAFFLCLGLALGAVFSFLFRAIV
Assay: Inhibition of [3H]uridine uptake into WT HeLa
Assay type: cell-based
Conditions: for inhibition at 20 µM: HeLa; for ENT1 % Inhibition (±SD): 20 μM, model-predicted compounds from MedChem Express Drug Repurposing Library

[1] = read-out: ENT1 % Inhibition (±SD)

SMILES | inhibition at 20 µM [1] [%] | also measured
Cc1c(OCC(F)(F)F)ccnc1C[S@@+]([O-])c1nc2ccccc2[nH]1 [(R)-Lansoprazole] | 73.6 | 
C[C@]12CC[C@@H]3c4ccc(O)cc4CC[C@H]3[C@@H]1CC[C@H]2O [Alpha-Estradiol] | 77.2 | 
COc1cc(OC)c2c(=O)[nH]c(-c3cc(C)c(OCCO)c(C)c3)nc2c1 [Apabetalone] | 88.1 | 
CC[C@@H](C(=O)Nc1ccc(C(N)=O)c(F)c1)n1cc(OC)c(-c2cc(Cl)ccc2-n2cc(C(F)(F)F)nn2)cc1=O [Asundexian] |  | ENT1 % Inhibition (±SD): 95.39 (0.23) %
COc1ccc(CN=c2[nH]c(N3CCC[C@H]3CO)ncc2C(=O)NCc2ncccn2)cc1Cl [Avanafil] | 100 | 
COc1cccc(C(=O)COc2ccc(CC3SC(=O)NC3=O)cc2)c1 (centres unmarked) [Azemiglitazone] |  | ENT1 % Inhibition (±SD): 74.95 (4.00) %
COc1cc(C(=O)c2c(C)oc3c(O)c(OC)ccc23)cc(OC)c1OC [BNC105] |  | ENT1 % Inhibition (±SD): 97.87 (1.06) %
COC(=O)c1cc(OC)c2c(c1-c1c(CO)cc(OC)c3c1OCO3)OCO2 [Bicyclol] | 72.3 | 
COc1ccc(S(=O)(=O)Nc2cc(-c3c(O)ccc4ccccc34)c(O)c3ccccc23)cc1 [C188-9] |  | ENT1 % Inhibition (±SD): 72.99 (5.06) %
O=C(O[C@@H]1Cc2c(O)cc(O)cc2O[C@@H]1c1ccc(O)c(O)c1)c1cc(O)c(O)c(O)c1 [Epicatechin gallate] |  | IC50: 4 µM; inhibition at 20 µM (read-out: ENT1 inhibition of uridine uptake (Spectrum screen, text)): ~85%
CO[C@H]1C[C@@H]2CC[C@@H](C)[C@@](O)(O2)C(=O)C(=O)N2CCCC[C@H]2C(=O)O[C@H]([C@H](C)C[C@@H]2CC[C@@H](OCCO)[C@H](OC)C2)CC(=O)[C@H](C)/C=C(\C)[C@@H](O)[C@@H](OC)C(=O)[C@H](C)C[C@H](C)/C=C/C=C/C=C/1C [Everolimus] | 92 | 
C#CCOc1ccc(/C=C/C(=O)Nc2ccccc2C(=O)O)cc1OC [FT011] |  | ENT1 % Inhibition (±SD): 54.94 (2.47) %
COc1cc(-c2cnc3cc(OCCN4CCOCC4)ccn23)cc2c1C(=O)N(CC(F)(F)F)CC2 [GLPG3970] | 68.1 | 
COC(=O)C1=C(C)NC(C)=C(C(=O)OC(C)C)C1c1cccc2nonc12 (centres unmarked) [Isradipine] | 92.7 | 
Cc1ccc(C(=O)Nc2ccc(Oc3cc4cnn(C)c4cc3-c3cn[nH]c3)c(F)c2)c(=O)n1-c1ccc(F)cc1.Cl.Cl [Merestinib dihydrochloride] |  | ENT1 % Inhibition (±SD): 58.49 (4.13) %

Now from value to compound, other results behind:

inhibition at 20 µM [1] [%] | SMILES | also measured
67.5 | COc1cc(C[C@H]2C(=O)OC[C@@H]2Cc2ccc(OC)c(OC)c2)ccc1O [Arctigenin] | 
98 | CCOc1ccc2c(-c3cccc(F)c3)nn(CC(=O)N(C)c3ccc4nc(C)oc4c3)c(=O)c2c1 [CFTR corrector 2] | 
57.3 | COc1ccc(-c2c(Cl)ncn2-c2ccc(S(N)(=O)=O)cc2)cc1F [Cimicoxib] | 
98.2 | COc1cc2c(cc1OC)-c1c/c(=N\c3c(C)cc(C)cc3C)n(CCNC(N)=O)c(=O)n1CC2 [Ensifentrine] | 
86.8 | COc1cccc(-c2cc(F)c(Nc3ncccc3C(=O)O)c(F)c2)c1 [Farudodstat] | 
56.2 | Cc1cccc(-c2nn3c(c2-c2ccnc4ccc(C(N)=O)cc24)CCC3)n1 [Galunisertib] | 
91.4 | CO[C@H]1CC[C@H](n2c([C@@H]3CCCC(=O)N3c3ccc(F)c(F)c3)nc3cc(-c4c(C)noc4C)ccc32)CC1 [Inobrodib] | 
96.1 | CCn1c(=O)c2c(nc(/C=C/c3ccc(OC)c(OC)c3)n2C)n(CC)c1=O [Istradefylline] | 
81.3 | CNc1nc(-c2cccc(NC(=O)c3ccc(C(=O)OC)cc3)c2)c2cc(OC)c(OC)cc2n1 [Lotamilast] | 
79.3 | CCCOc1ccc(S(=O)(=O)N2CCN(CCO)CC2)cc1-c1nc2c(CCC)cn(CC)c2c(=O)[nH]1 [Mirodenafil (dihydrochloride), Mirodenafil] | 

Reference: paper PMC12486301 (The Journal of pharmacology and experimental therapeutics, 2025)
